Patent publication US6664442B2, “Selecting compounds to reduce inflammation associated with Alzheimer's disease” (Elan Pharmaceuticals, Inc., priority 2000, dated 2003)

How the values were obtained:
Assay type in all cases: in vivo, mouse
MCP-1 = assay: mRNA expression of MCP-1 in PDAPP mice immunized with Aβ1-42 or a fragment, quantitative RT-PCR; conditions: tissue not given
Excerpt: (§1) RNA was isolated from brain tissues using the S.N.A.P.™ Total RNA Isolation Kit (Invitrogen, Carlsbad, Calif.) according to manufacturer's instructions, with the following modifications: the tissue was homogenized for 20 seconds using a rotor-stator homogenizer (Fisher Scientific). The DNA digestion step was repeated a second time following isopropanol precipitation.
(§2) Quantitative PCR assays were run on a Perkin Elmer 7700 Sequencer using methods and materials provided by Perkin Elmer (Applied Biosystems Division, Foster City, Calif.). Primers and fluorescent probes were obtained from Perkin Elmer; the sequences and concentrations of primers and probes used for the various assays are listed in Table 1 below. PCR reactions were set up using approximately 300 nM concentrations of each of the forward and reverse primers, 100 nM probe and RNA extracted from the tissue of interest (20 ng). Each reaction also included a standard RNA for comparison. Data were normalized to total RNA or to GAPDH. Standard curves were run using standard RNA prepared from the appropriate tissue (e.g., brain total RNA). Sample results were normalized to the amount of RNA measured by OD and or control message (e.g., GAPDH).
(§3) Thus, the efficacy of Aβ-treatment can be assessed by comparing the mRNA expression of such markers.

IFN-γ = assay: mRNA expression of IFN-γ in PDAPP mice immunized with Aβ1-42 or a fragment, quantitative RT-PCR; conditions: tissue not given
Excerpt: as §1, §2, §3

CD4 = assay: mRNA expression of CD4 in PDAPP mice immunized with Aβ1-42 or a fragment, quantitative RT-PCR; conditions: tissue not given
Excerpt: as §1, §2, §3

Igk = assay: mRNA expression of Igk in PDAPP mice immunized with Aβ1-42 or a fragment, quantitative RT-PCR; conditions: tissue not given
Excerpt: as §1, §2, §3

IgG-1 = assay: mRNA expression of IgG-1 in PDAPP mice immunized with Aβ1-42 or a fragment, quantitative RT-PCR; conditions: Fr cortex
Excerpt: as §1, §2, §3

| Substance | MCP-1 mRNA, ratio of Aβ-treated mice to non-Aβ-treated mice (MCP-1) | IFN-γ mRNA, ratio of Aβ-treated mice to non-Aβ-treated mice (IFN-γ) | CD4 mRNA, ratio of Aβ-treated mice to non-Aβ-treated mice (CD4) | Igk mRNA, ratio of Aβ-treated mice to non-Aβ-treated mice (Igk) | IgG-1 mRNA, ratio of Aβ-treated mice to non-Aβ-treated mice (IgG-1) |
| --- | --- | --- | --- | --- | --- |
| Aβ1-5: fragment of Aβ1-42 used to immunize PDAPP mice (DAEFR; Amyloid-beta protein 42; UniProt P05067 672-676, looked up, fragment) | 0.75X | .8X | 0.99X | 2.10X |  |
| Aβ1-42: amyloid β-peptide 1-42 used to immunize PDAPP mice |  |  |  |  | 300X |
